Drawing on patent US8686126B2, “HBV drug resistance methods” (priority 2002, dated 2014), this text covers HBsAg level for one compound.

The experiment concerns HBsAg. Description: Serum levels of HBsAg by modified Laurell electrophoresis in HBV-infected patient No. 7. It is filed as in vivo. As to conditions: lamivudine treatment, just after breakthrough virus emerged. On the procedure: HBsAg, anti-HBs, HBeAg, anti-HBe, and anti-HCV were determined by the microparticle enzyme-immunoassay ([…]) method (Abbott Laboratories, North Chicago, Ill., US). Anti-HDV enzyme-immunoassay method was performed as per the methodology supplied by the manufacturer (Abbott Laboratories, North Chicago, Ill., US). Serum levels of HBsAg were determined by a modified Laurell electrophoresis system (Gerlich et al., 1975). HBV-DNA levels were tested by using a commercial liquid-hybridization assay (Digene, Maryland, US), with the lower limit of detection of this assay 5 pg/mL of viral DNA.
The HBsAg level of the patient was 1.19 μg/mL at the beginning of the lamivudine treatment and became undetectable after 4 months.

Take `Nc1ccn([C@@H]2CS[C@H](CO)O2)c(=O)n1` [lamivudine, beta-L-(−)-2′,3′-dideoxy-3′-thiacytidine]: the HBsAg level turned out to be 10.8 µg/mL.
